Source: patent US7988950B2, “Contrast agents endowed with high relaxivity for use in magnetic resonance imaging (MRI) which contain a chelating moiety with polyhydroxylated substituents” (Bracco Imaging S.p.A., priority 2004, dated 2011)

How the values were obtained:
[1] = Relaxivity determination (r1p) of Gd complexes at 298 K, 20 MHz, pH 7; type: physicochemical
Description: As far as the relaxation enhancement property is concerned, a paramagnetic Gd(III) complex is characterized by its relaxivity (r1p) which represents the increase of the proton relaxation rate of an aqueous solution of the Gd(III) complex in comparison to the proton relaxation rate of neat water (R1^o). The relaxivity is usually measured at 298 K and 20 MHz (0.5 T).
In order to best evaluate the relaxivity properties and the parameters affecting the relaxivity of the agents of the invention, some comparative tests have been performed. In a first experiment, the relaxivity of a number of Gd-based chelated compounds having different molecular weight, all derived from the following [Gd(DTPA-monophosphonate)]^3− basic backbone structure (r1p at 20 MHz and 298K: 6.1 mM^−1s^−1) of formula
Tested compounds include the Gd-complex of the chelating compounds 1b and 2b of the invention (hereinafter Gd-1b and Gd-2b) as well as a number of different derivatives of the aforementioned backbone moiety selected in order to cover a range of molecular weights of up to about 1800 Dalton. The relaxivity of all of the tested compounds were measured at 298 K and 20 MHz and pH 7. The obtained values, listed in table 5 below (together with the structure of the compounds) have also been plotted against the MW of the complexes (see FIG. 1).
A second experiment was performed to test the relaxivity of different compounds of the invention, marketed NSA, known LDA and other systems, all containing one coordinated water molecule (q=1). The data were registered at 298K and 20 MHz and pH=7, and plotted against their corresponding MW. Relaxivity data relating to LDA P760 and P792 (LDA contrast agents) are based on literature cited below.
In addition to the above, please find below as per table 7, other relaxivity values, measured as above indicated, for some other representative compounds of the invention.

[2] = 1/T1 NMRD profiles / relaxivity over a range of magnetic field strengths; type: physicochemical; conditions: 25° C., 1 mM aqueous solution; from 0.2 to 3 MHz
Description: As an example, the relaxivity profile of the gadolinium complex of the chelating ligand of the invention 2b (hereinafter referred to as Gd-2b), in the above magnetic field range, has been compared with that of a marketed NSA, i.e. Magnevist®, and that of a blood pool agent, i.e. the macromolecular adduct between Gd-DTPA(BOM)3 and BSA (Bovine Serum Albumin) (FIG. 6).
The corresponding profile for the above blood pool agent is quite different.
The stability of the relaxivity properties shown by the compounds of the invention was tested. In a first experiment, the 1/T1 NMRD profiles for some compounds of the invention were acquired over a range of magnetic field strengths ranging from 0.01 to 130 MHz. The profile shown by the Gd-1b chelated compound of the invention is included in FIG. 4, while corresponding profiles for chelated compounds Gd-1c, Gd-2c and Gd-3c are included in FIGS. 5 and 5 bis. A comparison has been also performed for compound Gd-2b over a corresponding profile registered for GD-DTPA (Magnevist®), a marketed NSA, and for GD-DOTA-BSA, a well known blood pool agent.
Conversely, the relaxivity improvement shown by the blood pool agent rapidly falls dawn over the same range of magnetic field strength.

[3] = Table 5, 298 K, 20 MHz, pH 7, q=1 derivatives of the DTPA-monophosphonate backbone
[4] = Table 7, measured as above indicated (298 K, 20 MHz)
[5] = Table 6, 298K, 20 MHz, pH=7, q=1

Compound | R1p [1, 5] [mM⁻¹ s⁻¹] | also measured
O=C(O)CN(CCN(CCN(CC(=O)O)[C@@H](Cc1ccccc1)C(=O)O)CP(=O)(O)O)[C@@H](Cc1ccccc1)C(=O)O [B 22606] | – | R1p [1, 3]: 7.7 mM⁻¹ s⁻¹
O=C(O)CCC(C(=O)O)N1CCN(Cc2cccc(C(=O)NCC(CNC(=O)C(O)C(O)C(O)C(O)CO)(CNC(=O)C(O)C(O)C(O)C(O)CO)CNC(=O)C(O)C(O)C(O)C(O)CO)c2)CCN(C(CCC(=O)O)C(=O)O)CCN(C(CCC(=O)O)C(=O)O)CC1 (stereo not drawn) [Gd-1d] | – | R1p [1, 4]: 24 mM⁻¹ s⁻¹
CC(CO)(CO)COCC(CNC(=O)CCC(C(=O)O)N1CCN(C(CCC(=O)NCC(COCC(C)(CO)CO)COCC(C)(CO)CO)C(=O)O)CCN(C(CCC(=O)NCC(COCC(C)(CO)CO)COCC(C)(CO)CO)C(=O)O)CCN(C(CCC(=O)NCC(COCC(C)(CO)CO)COCC(C)(CO)CO)C(=O)O)CC1)COCC(C)(CO)CO (stereo not drawn) [Gd-2c] | 15 | –
O=C(CC[C@@H](C(=O)O)N1CCN([C@@H](CCC(=O)NC(COC2OC(CO)C(O)C(O)C2O)(COC2OC(CO)C(O)C(O)C2O)COC2OC(CO)C(O)C(O)C2O)C(=O)O)CCN([C@@H](CCC(=O)NC(COC2OC(CO)C(O)C(O)C2O)(COC2OC(CO)C(O)C(O)C2O)COC2OC(CO)C(O)C(O)C2O)C(=O)O)CCN([C@@H](CCC(=O)NC(COC2OC(CO)C(O)C(O)C2O)(COC2OC(CO)C(O)C(O)C2O)COC2OC(CO)C(O)C(O)C2O)C(=O)O)CC1)NC(COC1OC(CO)C(O)C(O)C1O)(COC1OC(CO)C(O)C(O)C1O)COC1OC(CO)C(O)C(O)C1O (stereo partly drawn) [Gd-7c] | – | R1p [1, 4]: 20.4 mM⁻¹ s⁻¹
O=C(O)CN(CCN(CCN(CC(=O)O)[C@@H](COCc1ccccc1)C(=O)O)CP(=O)(O)O)[C@@H](COCc1ccccc1)C(=O)O [B 22666] | – | R1p [1, 3]: 7.9 mM⁻¹ s⁻¹
O=C(O)CN1CCN(C(COCc2ccccc2)C(=O)O)CCN(CC(=O)O)CCN(C(COCc2ccccc2)C(=O)O)CC1 (stereo not drawn) [Compound B19236] | 6.5 | –
O=C(O)CN(CCN(CC(=O)O)CC(=O)O)CCN(CC(=O)O)CC(=O)O [Gd-DTPA] | 4.7 | –
CC1(N(CC(=O)O)CC(=O)O)CN(C(CCC(=O)N(CCN(CCC(=O)NC(CO)(CO)CO)CCC(=O)NC(CO)(CO)CO)CCN(CCC(=O)NC(CO)(CO)CO)CCC(=O)NC(CO)(CO)CO)C(=O)O)CCN(C(CCC(=O)N(CCN(CCC(=O)NC(CO)(CO)CO)CCC(=O)NC(CO)(CO)CO)CCN(CCC(=O)NC(CO)(CO)CO)CCC(=O)NC(CO)(CO)CO)C(=O)O)C1 (stereo not drawn) [Gd-15a] | – | R1p [1, 4]: 16.7 mM⁻¹ s⁻¹
O=C(O)CN1CCN(CC(=O)O)CCN(C(COCc2ccccc2)C(=O)O)CCN(CC(=O)O)CC1 (stereo not drawn) [Compound B19106] | 5.5 | –
Gd-DTPA | – | relaxivity profile over magnetic field strength (NMRD) [2]: quite stable though very low
O=C(O)CN(CCN(CCN(CC(=O)O)[C@@H](Cc1c[nH]c2ccccc12)C(=O)O)CP(=O)(O)O)C(Cc1c[nH]c2ccccc12)C(=O)O (stereo partly drawn) [B 22836] | – | R1p [1, 3]: 7.9 mM⁻¹ s⁻¹

Second part, led by results:

R1p [1, 5] [mM⁻¹ s⁻¹] | Compound | also measured
7.5 | O=C(O)CN1CCN(C(COCc2ccccc2)C(=O)O)CCN(C(COCc2ccccc2)C(=O)O)CCN(C(COCc2ccccc2)C(=O)O)CC1 (stereo not drawn) [Compound B19406] | –
4.7 | O=C(O)CN1CCN(CC(=O)O)CCN(CC(=O)O)CCN(CC(=O)O)CC1 [Gd-DOTA] | –
19.6 | O=C(CCC(C(=O)O)N1CCN(C(CCC(=O)NCC(COCC(COC(CO)CO)COC(CO)CO)COCC(COC(CO)CO)COC(CO)CO)C(=O)O)CCN(C(CCC(=O)NCC(COCC(COC(CO)CO)COC(CO)CO)COCC(COC(CO)CO)COC(CO)CO)C(=O)O)CCN(C(CCC(=O)NCC(COCC(COC(CO)CO)COC(CO)CO)COCC(COC(CO)CO)COC(CO)CO)C(=O)O)CC1)NCC(COCC(COC(CO)CO)COC(CO)CO)COCC(COC(CO)CO)COC(CO)CO (stereo not drawn) [Gd-3c] | –
13.84 | O=C(CCC(C(=O)O)N1CCN(C(CCC(=O)NCC(COC(CO)CO)COC(CO)CO)C(=O)O)CCN(C(CCC(=O)NCC(COC(CO)CO)COC(CO)CO)C(=O)O)CCN(C(CCC(=O)NCC(COC(CO)CO)COC(CO)CO)C(=O)O)CC1)NCC(COC(CO)CO)COC(CO)CO (stereo not drawn) [Gd-1c] | –
